Structures can show the parent of a compound that is named as a salt.
Key:
[1] = molecular target: human JAK3 (Homo sapiens (Human), UniProt P52333); test: JAK3 kinase domain Alphascreen enzyme screening; assay type: biochemical; conditions: read-out: JAK3_ IC50_nM
Description: (§1) For screening purposes, compounds (in 100% DMSO) were warmed at 37° C. for at least 20 minutes before use. A […] stock was initially made in assay buffer, where the final concentration of DMSO was 0.3%. The stocks were then diluted in 384 well Optiplates (Packard) where the final concentration of the compound was 5 μM.
The kinase domain of human JAK3 was amplified from U937 mRNA using the polymerase chain reaction with the following primers: […]
The JAK3 PCR products were cloned into the pDest20 destination expression vector (Gibco). The JAK3 plasmid was then transformed into competent DH10Bac cells (Gibco), and the recombinant baculovirus was prepared via Sf9 insect cell transfection.
(§2) Baculovirus preparations from each of the JAK family members were infected into one litre of […] (Spodoptera frugiperda) cells (Invitrogen) grown in SF900II serum free medium (Invitrogen) to a cell density of approximately 2×10^6 cells/ml. Cells were infected with virus at a cell culture to virus stock ratio of 20:1. Cells were harvested and lysed 48 hours post infection. The GST-tagged JAK kinase domains were purified by affinity chromatography on a GSH agarose column (Scientifix).
The compounds were then incubated with substrate in the presence of either […] ATP for 60 or 90 minutes. […] (final concentration 111 μM) or substrate-2 substrate with the sequence biotin-[…] [SEQ ID NO: 16] (final concentration 133 μM). Alphascreen phosphotyrosine acceptor beads followed by streptavidin donor beads at a concentration of 1/100 in stop buffer were added to each well under subdued light and incubated for 2-3 hours. The Alphascreen plates were read on a Packard Fusion Alpha instrument

[2] = molecular target: human JAK2 (Homo sapiens (Human), UniProt O60674); test: JAK2 kinase domain Alphascreen enzyme screening; assay type: biochemical; conditions: read-out: JAK2_IC50_nM
Sequence of human JAK2 (O60674 849-1124): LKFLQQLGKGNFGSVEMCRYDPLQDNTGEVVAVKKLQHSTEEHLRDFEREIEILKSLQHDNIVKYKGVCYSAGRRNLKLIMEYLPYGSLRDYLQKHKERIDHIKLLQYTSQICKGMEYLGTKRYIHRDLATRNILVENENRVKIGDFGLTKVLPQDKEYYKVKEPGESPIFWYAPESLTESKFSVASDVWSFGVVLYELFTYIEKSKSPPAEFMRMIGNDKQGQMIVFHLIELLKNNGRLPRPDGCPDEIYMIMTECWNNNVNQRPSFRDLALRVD
Description: as §1
The kinase domain of human JAK2 was amplified from U937 mRNA using the polymerase chain reaction with the following primers: […]
The JAK2 PCR products were cloned into the pDest20 destination vector (Gibco). The JAK2 plasmid was then transformed into competent DH10Bac cells (Gibco), and the recombinant baculovirus was prepared via Sf9 insect cell transfection.
as §2
Alphascreen phosphotyrosine acceptor beads followed by streptavidin donor beads at a concentration of 1/100 in stop buffer were added to each well under subdued light and incubated for 2-3 hours. The Alphascreen plates were read on a Packard Fusion Alpha instrument

[3] = test system: CTLL2; test: Cellular screening, CTLL2 cells (Alamar Blue); assay type: cell-based; conditions: Mus musculus, CTLL-2; 48-72 hr incubation; read-out: CTLL2_IC50_μM
Description: (§3) For screening purposes, compounds were diluted in 96 well plates at a concentration of 20 μM. Plates were warmed at 37° C. for 30 minutes before the assay was performed.
(§4) Cell suspensions were prepared by harvesting cells from culture (the cells used in this test were in late log phase growth with high viability.) Cells were diluted in the appropriate growth medium, as described above, to 1.1× final concentration (from 50,000 cell/mL to 200,000 cell/mL, depending on cell line).
(§5) Compounds to be tested were added (10 μL, 10× final concentration) to a flat bottomed 96-well plate. The cellular suspension (90 μL per well) was then added, and the plate incubated for 48-72 hr at 37° C., 5% CO2. Alamar Blue 10 μL per well was added and the plates returned to the incubator for a further 4-6 hours. The plates were then read at 544 nm.
(§6) Result are given in table 2 where +++ is <1 μM, ++ is <5 μM and + is <20 μM

[4] = test system: BaF3 wild-type cells; test: Cellular screening, BaF3 wild-type cells (Alamar Blue); assay type: cell-based; conditions: Mus musculus, 48-72 hr incubation, read-out: BAF3wt_IC50_μM
Description: as §3
(§7) The growth factor dependent myelomonocytic cell line BaF3 bearing the pTET-off plasmid (Clontech) was transfected with either pTELJAK2 or pTELJAK3, and the transfected cells were selected for growth-factor independent cell growth. The BaF3 wild-type cells were cultured in DMEM containing 10% FCS, 10% WEHI 3B conditioned medium. The BaF3 TELJAK cells ([…]) were cultured in DMEM 10% Tet-System Approved FBS (without WEHI 3B conditioned medium).
as §4, §5, §6

[5] = test system: BaF3 TELJAK cells (BafT_J2); test: Cellular screening, BaF3 TELJAK2 cells (Alamar Blue); assay type: cell-based; conditions: Mus musculus, BaF3; 48-72 hr incubation; read-out: BafT_J2_IC50_μM
Description: as §3
A TEL/Jak2 fusion was generated by digestion of the TELPCR product with BamH I/Sal I restriction enzymes, digestion of the JAK2 PCR product with Sal I/Not I restriction enzymes, followed by ligation and subcloning of the ligation product into the mammalian expression Vector pTRE 2 (Clontech), which was prepared by digestion with BamH I—Not I restriction enzymes, to give the TEL/Jak2 fusion plasmid pTELJAK2.
as §7, §4
as §5, with “hours.” for “hours. The plates were then read at 544 nm.”
as §6

Sequence of human JAK3 (P52333 822-1111): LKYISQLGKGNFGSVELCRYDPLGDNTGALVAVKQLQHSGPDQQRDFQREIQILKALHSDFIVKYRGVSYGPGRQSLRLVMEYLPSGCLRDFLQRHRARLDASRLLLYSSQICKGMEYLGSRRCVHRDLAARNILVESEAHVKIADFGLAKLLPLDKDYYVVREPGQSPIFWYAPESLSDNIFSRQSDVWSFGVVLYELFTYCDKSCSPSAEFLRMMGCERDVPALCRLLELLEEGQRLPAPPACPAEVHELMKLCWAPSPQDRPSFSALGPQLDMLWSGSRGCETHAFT

| Structure (SMILES) | IC50 [1] | IC50 [2] | IC50 [4] | IC50 [5] | IC50 [3] |
| --- | --- | --- | --- | --- | --- |
| N#CCNC(=O)c1ccc(-c2ccnc(Nc3ccc(N4CCC(CO)CC4)cc3)n2)cc1 [Compound 42, N-(cyanomethyl)-4-(2-(4-(4-(hydroxymethyl)piperidin-1-yl)phenylamino)pyrimidin-4-yl)benzamide] | < 500 nM | < 100 nM | < 5000 nM | < 5000 nM | < 5000 nM |
| N#CCNC(=O)c1ccc(-c2ccnc(Nc3ccc(C(=O)N4CCC(N5CCCC5)CC4)cc3)n2)cc1 [Compound 50, N-(cyanomethyl)-4-(2-(4-(4-(pyrrolidin-1-yl)piperidine-1-carbonyl)phenyl-amino)pyrimidin-4-yl)benzamide] | < 1000 nM | < 100 nM | < 20000 nM | < 5000 nM | > 20000 nM |
| CC(=O)N1CCN(c2ccc(Nc3nccc(-c4ccc(C(=O)NCC#N)cc4)n3)cc2)CC1 [Compound 55, 4-(2-(4-(4-acetylpiperazin-1-yl)phenylamino)pyrimidin-4-yl)-N-(cyanomethyl) benzamide] | < 100 nM | < 100 nM | < 5000 nM | < 1000 nM | < 5000 nM |
| Cc1cnc(Nc2ccc(N3CCC(NS(C)(=O)=O)CC3)cc2)nc1-c1ccc(C(=O)NCC#N)cc1 [Compound 56, N-(cyanomethyl)-4-(5-methyl-2-(4-(4-(methylsulfonamido)piperidin-1-yl)phenylamino)pyrimidin-4-yl)benzamide] | < 100 nM | < 100 nM | < 5000 nM | < 1000 nM | < 5000 nM |
| C#CCN(c1ccc(-c2ccnc(Nc3ccc(N4CCOCC4)cc3)n2)cc1)S(C)(=O)=O [Compound 57, N-(4-(2-(4-morpholinophenyl-amino)pyrimidin-4-yl)phenyl)-N-(prop-2-ynyl)methane-sulfonamide tosylate] | < 1000 nM | < 100 nM | < 5000 nM | < 5000 nM | < 5000 nM |
| N#CCNC(=O)c1ccc(-c2ccnc(Nc3ccc(OC4CCNCC4)cc3)n2)cc1 [Compound 59, N-(cyanomethyl)-4-(2-(4-(piperidin-4-yloxy)phenylamino)pyrimidin-4-yl)benzamide] | < 500 nM | < 100 nM | < 1000 nM | < 5000 nM | < 5000 nM |
| CCCOCc1cccc(Nc2nccc(-c3ccc(C(=O)NCC#N)cc3)n2)c1 [Compound 75, N-(cyanomethyl)-4-(2-(3-(proproxymethyl)phenylamino)pyrimidin-4-yl)benzamide] | < 1000 nM | < 100 nM | < 5000 nM | < 5000 nM | < 5000 nM |

Second part, led by results:

| IC50 [1] | IC50 [2] | IC50 [4] | IC50 [5] | Structure (SMILES) | IC50 [3] |
| --- | --- | --- | --- | --- | --- |
| < 500 nM | < 100 nM | < 5000 nM | < 20000 nM | N#CCNC(=O)CNC(=O)c1ccc(-c2ccnc(Nc3ccc(N4CCOCC4)cc3)n2)cc1 [Compound 34, N-(2-(cyanomethylamino)-2-oxoethyl)-4-(2-(4-morpholinophenyl-amino)pyrimidin-4-yl)benzamide] | < 5000 nM |
| < 500 nM | < 100 nM | < 5000 nM | < 1000 nM | N#CCNC(=O)c1ccc(-c2nc(Nc3ccc(N4CCOCC4)cc3)ncc2Cl)cc1 [Compound 53, 4-(5-chloro-2-(4-morpholinophenyl-amino)pyrimidin-4-yl)-N-(cyanomethyl) benzamide] | < 5000 nM |
| < 100 nM | < 100 nM | < 5000 nM | < 1000 nM | Cc1cnc(Nc2ccc(N3CCC(O)CC3)cc2)nc1-c1ccc(C(=O)NCC#N)cc1 [Compound 58, N-(cyanomethyl)-4-(2-(4-(4-hydroxypiperidin-1-yl)phenylamino)-5-methylpyrimidin-4-yl)benzamide] | < 1000 nM |
| < 100 nM | < 100 nM | < 1000 nM | < 1000 nM | N#CCNC(=O)c1ccc(-c2nc(Nc3ccc(N4CCOCC4)cc3)ncc2Br)cc1 [Compound 65, 4-(5-bromo-2-(4-morpholinophenyl-amino)pyrimidin-4-yl)-N-(cyanomethyl) benzamide] | < 1000 nM |

— patent publication US12570614B2, “Phenyl amino pyrimidine compounds and uses thereof” (GlaxoSmithKline LLC, priority 2007, dated 2026)
